Measured values published in patent US8969552B2, “Arylsulfonylmethyl or arylsulfonamide substituted aromatic compounds suitable for treating disorders that respond to modulation of the dopamine D3 receptor” (AbbVie Deutschland GmbH & Co. KG, priority 2004, dated 2015).

Assays:
[1] = target: T1, human dopamine D3 receptors (Homo sapiens, UniProt P35462); assay: Dopamine D3 receptor binding, [125I]-iodosulpride displacement; details: for Ki: membranes of HEK-293 cells stably expressing human D3 receptor, 0.1 nM [125I]-iodosulpride, 25° C., 60 minutes; for Ki(D2)*/Ki(D3)*: selectivity ratio of receptor binding constants D2 versus D3
T1 construct: expressed in transfected cells; membranes
Procedure: (§1) The substance to be tested was either dissolved in methanol/Chremophor® (BASF-AG) or in dimethyl sulfoxide and then diluted with water to the desired concentration.
(§2) Each assay mixture was run in triplicate.
The incubation buffer contained 50 mM tris, 120 mM NaCl, 5 mM KCl, 2 mM CaCl2, 2 mM MgCl2 and 0.1% bovine serum albumin, 10 μM quinolone and 0.1% ascorbic acid (prepared fresh daily). The buffer was adjusted to pH 7.4 with HCl.
(§3) Measurement and Analysis:
(§4) After having been incubated at 25° C. for 60 minutes, the assay mixtures were filtered through a Whatman GF/B glass fiber filter under vacuum using a cell collecting device. The filters were transferred to scintillation viols using a filter transfer system. After 4 ml of Ultima Gold® (Packard) have been added, the samples were shaken for one hour and the radioactivity was then counted in a Beta-Counter (Packard, Tricarb 2000 or 2200CA). The cpm values were converted into dpm using a standard quench series and the program belonging to the instrument.
(§5) The inhibition curves were analyzed by means of iterative nonlinear regression analysis using the Statistical Analysis System (SAS) which is similar to the “LIGAND” program described by Munson and Rodbard.
(§6) The results of the receptro binding studies are expressed as receptor binding constants Ki(D2) and Ki(D3), respectively, as herein before described, and given in table 2.

[2] = target: T2, human dopamine D2L receptors (long isoform) (Homo sapiens, UniProt P14416); assay: Dopamine D2L receptor binding, [125I] iodospiperone displacement; details: membranes of HEK-293 cells stably expressing human D2L receptor; 0.01 nM [125I] iodospiperone; 25° C., 60 minutes; read-out: Ki(D2)*
T2 construct: expressed in transfected cells; membranes
Procedure: as §1, §2
The incubation buffer contained 50 mM tris, 120 mM NaCl, 5 mM KCl, 2 mM CaCl2, 2 mM MgCl2 and 0.1% bovine serum albumin. The buffer was adjusted to pH 7.4 with HCl.
as §3, §4, §5, §6

T2 sequence (P14416 whole entry, canonical isoform): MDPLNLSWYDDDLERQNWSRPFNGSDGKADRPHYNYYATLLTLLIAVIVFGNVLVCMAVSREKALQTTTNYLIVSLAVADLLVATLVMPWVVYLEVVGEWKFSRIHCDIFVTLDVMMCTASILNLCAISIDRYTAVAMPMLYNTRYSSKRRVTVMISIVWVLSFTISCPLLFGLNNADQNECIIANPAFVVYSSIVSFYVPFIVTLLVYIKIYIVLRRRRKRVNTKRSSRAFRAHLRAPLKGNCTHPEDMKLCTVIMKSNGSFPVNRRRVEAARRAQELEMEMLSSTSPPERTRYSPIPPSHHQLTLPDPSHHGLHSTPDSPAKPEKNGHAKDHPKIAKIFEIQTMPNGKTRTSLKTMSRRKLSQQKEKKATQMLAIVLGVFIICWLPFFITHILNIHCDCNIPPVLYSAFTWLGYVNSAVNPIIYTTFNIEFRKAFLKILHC
T1 sequence (P35462 whole entry): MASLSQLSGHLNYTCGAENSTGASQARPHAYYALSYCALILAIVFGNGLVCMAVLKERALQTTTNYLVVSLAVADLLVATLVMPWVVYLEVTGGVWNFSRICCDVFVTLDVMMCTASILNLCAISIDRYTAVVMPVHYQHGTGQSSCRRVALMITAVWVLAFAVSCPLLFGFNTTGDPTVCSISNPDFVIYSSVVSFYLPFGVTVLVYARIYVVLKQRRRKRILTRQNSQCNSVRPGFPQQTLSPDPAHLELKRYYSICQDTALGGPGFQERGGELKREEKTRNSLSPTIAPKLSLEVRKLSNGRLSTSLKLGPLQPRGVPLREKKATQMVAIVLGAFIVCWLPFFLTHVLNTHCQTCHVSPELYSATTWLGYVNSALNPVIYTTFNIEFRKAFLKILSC

Structure (SMILES)	Ki [1]	Ki(D2)*/Ki(D3)* [1]	Ki [2]
CCCNC1CCc2cc(NS(=O)(=O)c3ccc(C(C)C)cc3)cnc2C1 (stereo not drawn) [Example 15, 4-Isopropyl-N-(7-propylamino-5,6,7,8-tetrahydro-quinolin-3-yl)-benzenesulfonamide]	0.0113 µM	42	0.476 µM
C=CCN1CCC[C@H]2c3ccc(NS(=O)(=O)c4ccc(C(C)C)cc4)cc3CC[C@@H]21 [Example 19, N-((4aS,10bS)-4-Allyl-1,2,3,4,4a,5,6,10b-octahydro-benzo[f]quinolin-8-yl)-4-isopropylbenzenesulfonamide]	0.0025 µM	21	0.051 µM
C=CCN1CCC[C@H]2c3cc(NS(=O)(=O)c4ccc(C(C)C)cc4)ccc3CC[C@@H]21 [Example 20, N-((4aS,10bS)-4-Allyl-1,2,3,4,4a,5,6,10b-octahydro-benzo[f]quinolin-9-yl)-4-isopropylbenzenesulfonamide]	0.0075 µM	45	0.339 µM
CCCN(CCC)[C@@H]1CCc2cc(NS(=O)(=O)c3ccc(C(C)C)cc3)ccc2C1.Cl [Example 29, N—((R)-6-Dipropylamino-5,6,7,8-tetrahydro-naphthalen-2-yl)-4-isopropyl-benzenesulfonamide, hydrochloride]	0.00037 µM	4	0.00139 µM
CCCN(CCC)[C@H]1CCc2cc(NS(=O)(=O)c3ccc(C(C)C)cc3)ccc2C1.Cl [Example 30, N—((S)-6-Dipropylamino-5,6,7,8-tetrahydro-naphthalen-2-yl)-4-isopropylbenzenesulfonamide, hydrochloride]	0.00039 µM	29	0.0113 µM
CCCNC1COc2cc(NS(=O)(=O)c3ccc(C(C)C)cc3)cnc2C1 (stereo not drawn) [Example 35, 4-Isopropyl-N-(3-propylamino-3,4-dihydro-2H-pyrano[3,2-b]pyridin-7-yl)benzenesulfonamide]	0.0304 µM	406	12.3 µM
CCCN[C@H]1CCc2cc(NS(=O)(=O)c3ccc(-c4cnco4)s3)ccc2C1 [Example 38, 5-Oxazol-5-yl-thiophene-2-sulfonic acid ((S)-6-propylamino-5,6,7,8-tetrahydro-naphthalen-2-yl)-amide]	0.00481 µM	151	0.727 µM
CCCN[C@H]1CCc2cc(NS(=O)(=O)c3ccc([C@@H](C)C(F)(F)F)cc3)ccc2C1 [Example 41, N—((S)-6-Propylamino-5,6,7,8-tetrahydro-naphthalen-2-yl)-4-((R)-2,2,2-trifluoro-1-methylethyl)-benzenesulfonamide]	0.0122 µM	101	1.23 µM
CCCN[C@H]1CCc2cc(NS(=O)(=O)c3ccc([C@H](C)C(F)(F)F)cc3)ccc2C1 [Example 42, N—((S)-6-Propylamino-5,6,7,8-tetrahydro-naphthalen-2-yl)-4-((S)-2,2,2-trifluoro-1-methylethyl)-benzenesulfonamide]	0.00195 µM	263	0.514 µM
CCCN[C@H]1CCc2cc(NS(=O)(=O)c3ccc(-c4ccon4)s3)ccc2C1 [Example 43, 5-Isoxazol-3-yl-thiophene-2-sulfonic acid ((S)-6-propylamino-5,6,7,8-tetrahydro-naphthalen-2-yl)-amide]	0.0307 µM	113	3.48 µM
CCCN[C@H]1CCc2cc(NS(=O)(=O)c3ccc(N4CC[C@@H](F)C4)cc3)ccc2C1 [Example 44, 4-((R)-3-Fluoro-pyrrolidin-1-yl)-N—((S)-6-propylamino-5,6,7,8-tetrahydro-naphthalen-2-yl)benzenesulfonamide]	0.00062 µM	416	0.258 µM
CCCN[C@H]1CCc2cc(NS(=O)(=O)c3ccc(N4CCOCC4)cc3)ccc2C1 [Example 45, 4-Morpholin-4-yl-N—((S)-6-propylamino-5,6,7,8-tetrahydro-naphthalen-2-yl)benzenesulfonamide]	0.0139 µM	94	1.31 µM
CCCN[C@H]1CCc2cc(NS(=O)(=O)c3ccc(-n4cccn4)cc3)ccc2C1.Cl [Example 76, N—((S)-6-Propylamino-5,6,7,8-tetrahydro-naphthalen-2-yl)-4-pyrazol-1-ylbenzenesulfonamide, hydrochloride]	0.00862 µM	84	0.728 µM
CCCN[C@H]1CCc2cc(NS(=O)(=O)c3ccc(C(C)C(F)F)cc3)ccc2C1.Cl (stereo partly drawn) [Example 77, 4-(2,2-Difluoro-1-methyl-ethyl)-N—((S)-6-propylamino-5,6,7,8-tetrahydro-naphthalen-2-yl)benzenesulfonamide, hydrochloride]	0.00165 µM	304	0.501 µM
